Measured values reported in patent US5912153A, “(1,3) β-glucan synthase genes and inducible inhibition of fungal growth using the antisense constructs derived therefrom” (priority 1995, dated 1999).

Target: Neurospora crassa wild type (1,3)β-glucan synthase (crude extract) (Neurospora crassa, UniProt Q7S0A7)
Experiment: (1,3)β-glucan synthase assay with quinate added to wild type crude extract
Assay type: biochemical
Conditions: concentrations as high as 4.0% of quinate added to the assay, data not shown
Procedure: To fresh hyphal pellets was added 20-mls of extraction buffer (25 mM HEPES (pH7.4); 10 mM NaH2 PO4; 600 mM glycerol; 10 mM NaF; 5 mM EDTA and 10 μM GTPy-S). At 4° C., hyphae were disrupted (5×30 second pulses with 2 minute coolings between each pulse) using a Bead Beater (Biospec Products, Bartlesville, Okla.) with 0.5 mm zirconium-silica beads. Lysates were centrifuged at 1000×g for 10 min at […], and used for the enzyme assays as will subsequently be described. Protein concentrations were determined by the method of Bradford using the Bio-Rad protein reagent (BioRad Labs, Hercules, Calif.). The yield was anywhere from 0.9-2.4 mg/ml crude extract depending on the transformant.
(1,3)β-Glucan synthase was assayed using modifications of a procedure previously described. To this end, in vitro reactions contained 50 μg α-amylase (type IIA; Sigma), 1 mM UDP-^14 C-glucose (~50,000 cpm/assay), and 20 μl crude extract in a final volume of 26 μl. Reactions were carried out in V-bottom 96-well microtiter plates (Dynatec Laboratories, Chantilly, Va.) and incubated at 22° C. for 0, 15, 30, 45, and 60 minutes. […]
Wrapped Inotech glass fiber filters were placed for 4-18 hours on a Molecular Dynamics Phosphor Screen. The amount of radioactivity on the filter was determined using a Molecular Dynamics Phosphor Imager Model Sl. […]

Chain of Neurospora crassa wild type (1,3)β-glucan synthase (crude extract) (Q7S0A7 1-1955): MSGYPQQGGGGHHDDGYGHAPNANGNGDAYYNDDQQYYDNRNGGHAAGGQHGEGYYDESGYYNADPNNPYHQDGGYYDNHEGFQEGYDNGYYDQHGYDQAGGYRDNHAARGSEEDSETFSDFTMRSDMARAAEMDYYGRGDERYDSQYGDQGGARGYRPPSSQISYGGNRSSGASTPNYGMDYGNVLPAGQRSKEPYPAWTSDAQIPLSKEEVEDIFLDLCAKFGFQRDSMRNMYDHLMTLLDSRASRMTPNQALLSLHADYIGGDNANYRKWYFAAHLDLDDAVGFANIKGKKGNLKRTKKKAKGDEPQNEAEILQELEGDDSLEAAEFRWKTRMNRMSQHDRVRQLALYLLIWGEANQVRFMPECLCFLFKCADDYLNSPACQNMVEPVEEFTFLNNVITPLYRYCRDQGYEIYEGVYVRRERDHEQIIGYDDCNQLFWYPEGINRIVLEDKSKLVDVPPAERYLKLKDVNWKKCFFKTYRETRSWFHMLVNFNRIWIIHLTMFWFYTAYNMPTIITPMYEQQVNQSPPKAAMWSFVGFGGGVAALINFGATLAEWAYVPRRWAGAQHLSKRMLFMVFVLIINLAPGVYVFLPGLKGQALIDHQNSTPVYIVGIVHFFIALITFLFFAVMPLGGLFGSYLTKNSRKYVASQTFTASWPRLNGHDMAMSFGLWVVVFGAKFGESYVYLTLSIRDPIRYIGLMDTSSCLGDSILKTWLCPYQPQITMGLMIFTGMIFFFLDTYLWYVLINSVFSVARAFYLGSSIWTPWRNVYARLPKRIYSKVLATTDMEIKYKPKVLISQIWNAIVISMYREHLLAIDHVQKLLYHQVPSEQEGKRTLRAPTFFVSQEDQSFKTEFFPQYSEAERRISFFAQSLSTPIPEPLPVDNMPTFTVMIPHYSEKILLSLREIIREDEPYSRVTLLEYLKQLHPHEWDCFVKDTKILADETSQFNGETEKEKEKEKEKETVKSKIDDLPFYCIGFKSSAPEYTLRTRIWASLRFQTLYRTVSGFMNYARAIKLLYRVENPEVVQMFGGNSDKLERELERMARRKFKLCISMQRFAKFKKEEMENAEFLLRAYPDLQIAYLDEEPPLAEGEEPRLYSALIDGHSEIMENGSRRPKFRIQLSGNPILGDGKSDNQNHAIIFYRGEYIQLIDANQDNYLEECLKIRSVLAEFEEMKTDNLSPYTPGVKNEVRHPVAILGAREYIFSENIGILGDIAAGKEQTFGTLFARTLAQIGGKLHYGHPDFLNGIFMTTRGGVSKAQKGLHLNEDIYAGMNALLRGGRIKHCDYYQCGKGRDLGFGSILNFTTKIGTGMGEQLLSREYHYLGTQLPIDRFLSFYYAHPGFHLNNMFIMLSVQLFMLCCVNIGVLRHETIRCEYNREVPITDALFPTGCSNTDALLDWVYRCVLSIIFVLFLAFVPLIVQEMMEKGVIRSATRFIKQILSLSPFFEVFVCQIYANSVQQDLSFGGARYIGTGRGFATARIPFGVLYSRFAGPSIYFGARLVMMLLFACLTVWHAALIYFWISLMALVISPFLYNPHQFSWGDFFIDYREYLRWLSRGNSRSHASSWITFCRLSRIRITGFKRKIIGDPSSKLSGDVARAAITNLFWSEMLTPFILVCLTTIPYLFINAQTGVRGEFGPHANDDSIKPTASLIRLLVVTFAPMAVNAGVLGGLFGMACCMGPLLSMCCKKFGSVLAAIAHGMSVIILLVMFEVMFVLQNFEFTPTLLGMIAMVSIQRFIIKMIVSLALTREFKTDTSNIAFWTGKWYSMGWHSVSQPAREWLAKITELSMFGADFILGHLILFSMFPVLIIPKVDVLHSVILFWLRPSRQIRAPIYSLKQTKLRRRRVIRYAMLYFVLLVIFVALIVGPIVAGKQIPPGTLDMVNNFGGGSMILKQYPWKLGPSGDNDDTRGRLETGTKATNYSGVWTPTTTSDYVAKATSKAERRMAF
Chain of Neurospora crassa wild type (1,3)β-glucan synthase (crude extract) (Q7RXU8 1-195 partner): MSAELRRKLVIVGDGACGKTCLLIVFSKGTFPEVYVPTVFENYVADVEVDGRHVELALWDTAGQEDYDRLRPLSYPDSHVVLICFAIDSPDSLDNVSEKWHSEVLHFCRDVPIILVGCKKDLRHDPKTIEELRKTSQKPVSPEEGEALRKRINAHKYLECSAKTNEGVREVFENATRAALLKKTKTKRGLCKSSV

With `O=C(O)C1(O)CC(O)C(O)C(O)C1` (single isomer, unassigned) [quinate, quinic acid] the “inhibitory effect of quinate on (1,3)β-glucan synthase activity” value was “did not show an inhibitory effect”.
